Like-named read-outs stand apart in the source and are kept apart here.
Columns and labels:
[1] = test system: MDA-MB-231 cells; assay: Matrigel invasion assay, MDA-MB-231 cells; assay type: cell-based, human
[2] = test system: MDA-MB-468 cells; assay: Matrigel invasion assay, MDA-MB-468 cells; assay type: cell-based, human; settings: hypoxia, FIG. 8
[3] = test system: MDA-MB-231 cells; assay: Cell viability, trypan blue dye exclusion, MDA-MB-231; assay type: cell-based, human; settings: normoxia or hypoxia, 48 h
Experimental: (§1) Cell viability was determined with the use of trypan blue dye exclusion assay. The assay was undertaken both in normoxic and hypoxic conditions. Upon completion of the treatment period, the media was aspirated and replaced with 0.2 mL of 0.4% trypan blue (Sigma-Aldrich) and 0.8 mL of DMEM media. The dish was mixed and incubated for 10 min in the humidified chamber. The trypan blue solution was replaced with 1 mL of DMEM and the dishes were observed under an inverted microscope (ID 03, Zeiss) at 100× magnification under phase contrast. The MTT assay was used to assess cell metabolic activity by determining the level of NAD (P) H-dependent cellular oxidoreductase enzymes. Cells were seeded in 24 well plates (Becton Dickinson, Oxford, UK) at 2×10^4 cells/well and were allowed to settle overnight before treatment. During the treatment, 500 μL of solution was added to each well and the assays were undertaken in both normoxic and hypoxic conditions. Upon treatment completion, 400 μL of DMEM and 100 μL of MTT was added into each well. […] The plates were rocked at 150 cycles/min for 5 min to mix the formazan with DMSO and the resulting formazan absorbance was measured at 570 nm with a multi-plate reader (ELX800 Universal Microplate Reader, Bio-Tek Instruments, UK). Two measurements for each result were recorded with a 5 min interval and the average was calculated.

[4] = test system: MDA-MB-468 cells; assay: Cell viability, trypan blue dye exclusion, MDA-MB-468; assay type: cell-based, human; settings: normoxia or hypoxia, 48 h
Experimental: as §1

[5] = test system: nNav1.5 protein; assay: Immunocytochemistry of nNav1.5 protein expression in MDA-MB-231 cells; assay type: cell-based, human; settings: hypoxia
Experimental: Cells were first seeded in 35×10 mm dishes (Becton Dickinson) at 5×10^5 cell/dish and left to settle overnight. The cells were pre-treated with treatment solutions for 32 h. The assay was only performed under hypoxia conditions. Before seeding the cells, 13 mm coverslips were placed in 24 well plates and 500 μL poly-L-lysine (Sigma) was added to each well for 20 min. After the period of pre-treatments, cells were trypsinized and seeded at 2×10^4 cells/coverslip in 500 μL of their respective treatment solutions. The plates were incubated under hypoxic condition and the assay was allowed for 16 h. At least two coverslips were prepared for each experiment. Upon assay completion, the coverslips were washed with phosphate buffered saline (PBS) before being fixed with 500 μL of 4% paraformaldehyde (Sigma) diluted in PBS. Fixation was for 10 min at room temperature on an orbital shaker. Coverslips were then washed 3×5 min in PBS. One of the coverslips for each condition was permeabilised with 500 μL 0.1% saponin/PBS solution (Sigma) for 4 min and 3×5 min of PBS washes followed. Permeabilised and non-permeabilised coverslips were all were treated with 500 μL 5% bovine serum albumin (BSA)/PBS (pH 7.4, v/v; Dako, Cambridge, UK) blocking agent for 1 h. Coverslips were transferred from the 24 well plate to a humidity chamber and were incubated with 100 μL of the primary antibody (NESOpAb) at a 1:200 dilution of the 0.7 mg/mL stock on an orbital shaker overnight at 3-5° C. The primary antibody used was NESOpAb which can specifically recognize and bind an external epitope sequence of the neonatal isoform of Nav1.5 […] et al., 2005). Coverslips were then rinsed with 3×5 min PBS and incubated with 100 μL of the secondary antibody, goat anti-rabbit IgG Alexa Fluor® 568, at a 1:100 concentration (Dako) for 1 h in darkness at room temperature. Coverslips for negative controls (which were incubated with secondary antibody only) were also prepared to check the specificity of the primary antibody. Coverslips were then rinsed with 3×5 min PBS+0.1% BSA and dipped in distilled water before being mounted on glass slides using mounting medium (Dako) and stored in darkness at 3-5° C. Images were taken with a Canon® digital camera inserted into an Axioimager immunofluorescence and phase contrast inverted microscope (Zeiss) and processed with Remote Capture Software® (Canon). ImageJ was used to analyse and quantify the corrected total cell florescence.

[6] = target: T1, VGSC (Homo sapiens, UniProt Q14524, S234P/V215L); assay: Whole-cell patch clamp of VGSC current in MDA-MB-231 cells; assay type: cell-based
T1 construct: minoxidil on the VGSC activity in MDA-MB-231 cells; endogenous in cells; host or cells: MDA-MB-231 (human breast cancer cell line)
Experimental: Whole-cell patch clamp recordings are performed on cells under superfusion with mammalian physiological saline (MPS). Details of whole-cell recordings have been described previously (Fraser et al., 2003, 2005; Grimes et al., 1995; Laniado et al., 1997). In brief, MPS contains (in mM): 144 NaCl, 5.4 KCl, 1 MgCl2, 2.5 CaCl2), 5 HEPES and 5.6 D-glucose (adjusted to pH 7.3 with NaOH). Patch pipettes (tip resistances, ˜5 MΩ) are filled with a solution designed to block the outward K^+ currents (in mM): NaCl 5, CsCl 145, MgCl2 2, CaCl2) 1, HEPES 10 and EGTA 11, adjusted to pH 7.4 with 1 M CsOH. The estimated intracellular free Ca^2+ concentration is ˜15 nM (Laniado et al., 2001). A holding potential of −100 mV is applied. Standard voltage-clamp protocols are used to study the electrophysiological properties of the VGSC currents. Mainly the following characteristics are studied: peak current (and its density), current-voltage relationship (current normalized to peak), steady-state inactivation/“availability”=test current (I)/maximum current (Imax); recovery from inactivation=test current (It)/control current (Ic). For accurate determination of the acute effect of minoxidil on peak current block, only currents larger than 200 pA are used. Further details of the voltage-clamp protocols, data analysis and curve fitting have been published earlier (Onkal et al., 2008).

[7] = 50 μM minoxidil, short-term (acute) application, FIG. 11

COc1ccccc1OCC(O)CN1CCN(CC(=O)Nc2c(C)cccc2C)CC1 (stereo not shown) [ranolazine, N-(2,6-Dimethylphenyl)-4-[2-hydroxy-3-(2-methoxyphenoxy)propyl]-1-piperazineacetamide]
reduction of cell invasion ([1]; 0.625 μM ranolazine, hypoxia, FIG. 6c): 24% | reduction of cell invasion ([1]; 1.25 μM ranolazine, hypoxia, FIG. 6b): 32% | reduction of cell invasion ([1]; 2.5 μM ranolazine, hypoxia, FIG. 6a): 36% | reduction of cell invasion ([1]; 2.5 μM ranolazine, hypoxia, FIG. 7a): 30% | effect on cell invasion ([1]; 2.5 μM ranolazine, normoxia, FIG. 7b): no effect | reduction of cell invasion ([1]; 5 μM ranolazine, hypoxia, FIG. 5a): 42% | reduction of cell invasion ([1]; 5 μM ranolazine, hypoxia, set with 2.5 μM minoxidil (FIG. 4b/5b)): 43% | reduction of cell invasion ([2]; 2.5 μM ranolazine): 33% | effect on cell viability ([3]; 5 μM ranolazine): no effect | effect on cell viability ([4]; 5 μM ranolazine): no effect | reduction of nNav1.5 protein expression ([5]; 5 μM ranolazine, non-permeabilized cells (plasma membrane), FIG. 9a): 30% | reduction of nNav1.5 protein expression ([5]; 5 μM ranolazine, permeabilized cells (total), FIG. 9b): 43% | effect on the transient ('peak') component of VGSC current ([6]; ranolazine at the concentrations used in the Examples (<<10 µM), FIG. 2): hardly any effect

NC1=N[C@H](O)[C@H]2[C@H]3O[C@]4(O)O[C@@H]([C@@H](O)[C@@]2(N1)[C@@H]4O)[C@]3(O)CO [TTX, Tetrodotoxin]
effect on invasiveness (normalized to control) [1]: slight effect but this is not significant

COc1cc2ncnc(Nc3cccc(Cl)c3)c2cc1OC [AG1478, N-(3-chlorophenyl)-6,7-dimethoxy-4-quinazolinamine]
effect on invasiveness (normalized to control) ([1]; 10 μM AG1478, normoxia, FIG. 10): significant inhibitory effect

Nc1cc(N2CCCCC2)nc(N)[n+]1[O-] [minoxidil, 6-(1-Piperidinyl)pyrimidine-2,4-diamine 3-oxide]
reduction of cell invasion ([1]; 2.5 μM minoxidil, hypoxia, FIG. 6a): 24% | reduction of cell invasion ([1]; 2.5 μM minoxidil, hypoxia, FIG. 6b): 41% | reduction of cell invasion ([1]; 2.5 μM minoxidil, hypoxia, FIG. 6c): 42% | reduction of cell invasion ([1]; 2.5 μM minoxidil, hypoxia, FIG. 7a): 49% | reduction of cell invasion ([1]; 2.5 μM minoxidil, hypoxia, set with 5 μM ranolazine (FIG. 4b/5b)): 48% | reduction of cell invasion ([1]; 2.5 μM minoxidil, normoxia, FIG. 7b): 53% | reduction of cell invasion ([1]; 5 μM minoxidil, hypoxia, FIG. 5a): 56% | reduction of cell invasion ([1]; 50 μM minoxidil, hypoxia, FIG. 5a): 89% | reduction of cell invasion ([2]; 2.5 μM minoxidil): 44% | effect on cell viability ([3]; 50 μM minoxidil): no effect | effect on cell viability ([4]; 50 μM minoxidil): no effect | effect on nNav1.5 protein expression ([5]; 50 μM minoxidil, non-permeabilized cells, FIG. 9a, P=0.58): neither minoxidil nor the drug combination had a significant effect | reduction of nNav1.5 protein expression ([5]; 50 μM minoxidil, permeabilized cells (total), FIG. 9b): 49% | effect on VGSC characteristics ([6]; 50 μM minoxidil, long-term (48 hour) treatment under hypoxia, then washing off, FIG. 12): no change | effect on peak current [6, 7]: no effect | effect on steady-state inactivation [6, 7]: shifted the steady-state inactivation to more hyperpolarised potentials
